Test results from ChEMBL document CHEMBL4806970, “Degraders of cyclin-dependent kinase 12 (cdk12) and uses thereof” (2020).
Values joined by “and” are separate entries in the source; they are usually repeats but may differ in a detail not shown here. Equal values may be shown once. Active and inactive are the calls of the source. The rule behind the calls is not given here.

What was measured:
[1] = target: T1, Protein cereblon/Cyclin-dependent kinase 12 (Homo sapiens) (UniProt Q9NYV4+Q96SW2); test: PROTAC activity at CRBN/CDK12 in human Jurkat cells assessed as induction of CDK12 degradation at 100 nM incubated for 6 hrs by western blot analysis; assay type: cell-based
[2] = target: T1, Protein cereblon/Cyclin-dependent kinase 12 (Homo sapiens); test: PROTAC activity at CRBN/CDK12 in human Jurkat cells assessed as induction of CDK12 degradation up to 500 nM incubated for 6 hrs by western blot analysis; assay type: cell-based; conditions: dose nM <=500, time 6.0 hrs
[3] = AUClast in C57BL/6 mouse at 2 mg/kg, iv measured up to 8 hrs post-dosing; assay type: ADME, organism-based; design: route intravenous, dose 2 mg/kg, time <=8; conditions: in vivo
[4] = Cmax in C57BL/6 mouse at 2 mg/kg, iv measured up to 8 hrs post-dosing; assay type: ADME, organism-based; design: route intravenous, dose 2 mg/kg, time <=8; conditions: in vivo
[5] = AUC(infinity) in C57BL/6 mouse at 2 mg/kg, iv measured up to 8 hrs post-dosing; assay type: ADME, organism-based; design: route intravenous, dose 2 mg/kg, time <=8; conditions: in vivo
[6] = AUC (extrapolated) in C57BL/6 mouse at 2 mg/kg, iv measured up to 8 hrs post-dosing; assay type: ADME, organism-based; conditions: in vivo
[7] = Half life in C57BL/6 mouse at 2 mg/kg, iv measured up to 8 hrs post-dosing; assay type: ADME, organism-based; conditions: in vivo

T1 sequence (Q96SW2 whole entry, looked up): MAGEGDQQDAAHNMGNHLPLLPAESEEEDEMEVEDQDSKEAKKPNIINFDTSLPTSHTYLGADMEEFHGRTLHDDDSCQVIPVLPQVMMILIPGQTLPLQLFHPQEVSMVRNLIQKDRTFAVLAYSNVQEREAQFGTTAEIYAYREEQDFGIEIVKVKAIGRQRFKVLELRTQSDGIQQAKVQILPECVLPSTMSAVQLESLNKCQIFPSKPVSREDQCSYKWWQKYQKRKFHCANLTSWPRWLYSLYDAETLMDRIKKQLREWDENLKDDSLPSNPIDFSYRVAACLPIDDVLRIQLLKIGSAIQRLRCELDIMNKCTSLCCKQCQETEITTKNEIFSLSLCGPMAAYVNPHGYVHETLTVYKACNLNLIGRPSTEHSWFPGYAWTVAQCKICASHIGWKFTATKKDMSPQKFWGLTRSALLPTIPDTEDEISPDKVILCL
T1 sequence (Q9NYV4 whole entry, looked up): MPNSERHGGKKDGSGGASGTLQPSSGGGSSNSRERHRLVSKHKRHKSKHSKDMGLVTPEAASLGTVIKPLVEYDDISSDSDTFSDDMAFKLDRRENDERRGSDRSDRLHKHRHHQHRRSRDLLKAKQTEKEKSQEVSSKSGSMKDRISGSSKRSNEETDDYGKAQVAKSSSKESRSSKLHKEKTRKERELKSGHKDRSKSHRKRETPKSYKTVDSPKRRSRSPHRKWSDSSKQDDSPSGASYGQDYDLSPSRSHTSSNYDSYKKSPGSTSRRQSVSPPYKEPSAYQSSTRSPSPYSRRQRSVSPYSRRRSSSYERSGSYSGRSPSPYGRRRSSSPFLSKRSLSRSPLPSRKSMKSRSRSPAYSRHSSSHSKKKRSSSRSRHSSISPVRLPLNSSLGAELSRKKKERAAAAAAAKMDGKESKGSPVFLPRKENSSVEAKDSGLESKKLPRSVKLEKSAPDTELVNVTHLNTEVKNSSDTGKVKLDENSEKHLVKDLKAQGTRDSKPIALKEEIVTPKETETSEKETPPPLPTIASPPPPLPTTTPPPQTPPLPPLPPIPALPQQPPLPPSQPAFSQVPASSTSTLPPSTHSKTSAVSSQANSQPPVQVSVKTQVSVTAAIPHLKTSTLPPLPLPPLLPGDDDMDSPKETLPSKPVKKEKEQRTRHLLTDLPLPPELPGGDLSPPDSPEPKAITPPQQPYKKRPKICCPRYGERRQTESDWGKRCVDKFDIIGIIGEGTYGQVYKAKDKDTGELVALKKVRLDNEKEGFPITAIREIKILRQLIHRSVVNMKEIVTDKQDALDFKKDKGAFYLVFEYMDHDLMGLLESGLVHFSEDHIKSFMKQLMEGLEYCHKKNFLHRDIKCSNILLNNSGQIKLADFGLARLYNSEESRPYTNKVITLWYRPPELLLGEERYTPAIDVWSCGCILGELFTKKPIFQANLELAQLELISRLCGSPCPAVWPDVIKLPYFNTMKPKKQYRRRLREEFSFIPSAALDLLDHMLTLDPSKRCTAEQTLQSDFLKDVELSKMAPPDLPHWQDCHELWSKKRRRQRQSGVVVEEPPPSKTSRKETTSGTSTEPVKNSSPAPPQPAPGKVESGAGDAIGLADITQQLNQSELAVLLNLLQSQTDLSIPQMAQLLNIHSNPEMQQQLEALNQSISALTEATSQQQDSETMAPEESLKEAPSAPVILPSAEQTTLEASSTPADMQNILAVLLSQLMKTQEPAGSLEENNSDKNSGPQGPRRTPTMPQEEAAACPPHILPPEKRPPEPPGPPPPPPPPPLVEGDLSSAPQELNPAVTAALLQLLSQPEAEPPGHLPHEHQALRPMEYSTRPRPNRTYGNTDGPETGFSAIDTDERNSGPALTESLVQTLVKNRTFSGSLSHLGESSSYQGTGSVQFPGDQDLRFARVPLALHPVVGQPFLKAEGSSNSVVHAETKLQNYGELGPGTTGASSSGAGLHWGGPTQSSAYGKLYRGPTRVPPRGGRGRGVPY

Row | SMILES | Activity [1] [%] | Activity [2] | further results
1 | Cc1ncsc1-c1ccc([C@H](C)NC(=O)[C@@H]2C[C@@H](O)CN2C(=O)[C@@H](NC(=O)CCOCCOCCOCCN2CCC[C@@H](Nc3ncc(Cl)c(Nc4ccccc4S(=O)(=O)C(C)C)n3)C2)C(C)(C)C)cc1 | 90 | – | –
2 | O=C(COc1cccc2c1C(=O)N(C1CCC(=O)NC1=O)C2=O)NCCCCCN1CCN(c2ccc(C(=O)N3CCC[C@@H](Nc4ncc(Cl)c(-c5c[nH]c6ccccc56)n4)C3)cc2)CC1 (some centres not stated) | 80 | – | –
3 | O=C(COc1cccc2c1C(=O)N(C1CCC(=O)NC1=O)C2=O)NCCCN1CCN(c2ccc(C(=O)N3CCC[C@@H](Nc4ncc(Cl)c(-c5c[nH]c6ccccc56)n4)C3)cc2)CC1 (some centres not stated) | 60 | – | –
4 | O=C(COc1cccc2c1C(=O)N(C1CCC(=O)NC1=O)C2=O)NCCOCCOCCOCCN1CCC[C@@H](Nc2ncc(Cl)c(-c3c[nH]c4ccccc34)n2)C1 (some centres not stated) | 80 | – | –
5 | O=C(COc1cccc2c1C(=O)N(C1CCC(=O)NC1=O)C2=O)NCCOCCOCCN1CCC[C@@H](Nc2ncc(Cl)c(-c3c[nH]c4ccccc34)n2)C1 (some centres not stated) | – | inactive | –
6 | Cc1ncsc1-c1ccc([C@H](C)NC(=O)[C@@H]2C[C@@H](O)CN2C(=O)[C@@H](NC(=O)CCCCCCCCCCN2CCC[C@@H](Nc3ncc(Cl)c(Nc4ccccc4S(=O)(=O)C(C)C)n3)C2)C(C)(C)C)cc1 | 90 | – | AUC(0-t) at 8 h [3]: 5720 ng·h/mL and 5.61 µM·h; Cmax [4]: 4570 ng/mL and 4.49 µM; AUC(0-inf) [5]: 6140 ng·h/mL; %AUCextra [6]: 6.27%; half-life [7]: 2.21 h
7 | O=C(COc1cccc2c1C(=O)N(C1CCC(=O)NC1=O)C2=O)NCCCCN1CCC[C@@H](Nc2ncc(Cl)c(-c3c[nH]c4ccccc34)n2)C1 (some centres not stated) | – | inactive | –
8 | CC(C)S(=O)(=O)c1ccccc1Nc1nc(N[C@@H]2CCCN(CCCCCCCNC(=O)COc3cccc4c3C(=O)N(C3CCC(=O)NC3=O)C4=O)C2)ncc1Cl (some centres not stated) | 90 | – | –
9 | Cc1ncsc1-c1ccc([C@H](C)NC(=O)[C@H]2C[C@H](O)CN2C(=O)[C@@H](NC(=O)CCCCCCCCCCN2CCC[C@@H](Nc3ncc(Cl)c(Nc4ccccc4S(=O)(=O)C(C)C)n3)C2)C(C)(C)C)cc1 | – | inactive | –
10 | O=C(COc1cccc2c1C(=O)N(C1CCC(=O)NC1=O)C2=O)NCCOCCOCCC(=O)N1CCC[C@@H](Nc2ncc(Cl)c(-c3c[nH]c4ccccc34)n2)C1 (some centres not stated) | – | inactive | –

Further lines, with some results ahead:

Row | Activity [1] [%] | Activity [2] | SMILES | further results
11 | 90 | – | O=C(COc1cccc2c1C(=O)N(C1CCC(=O)NC1=O)C2=O)NCCCCCCCN1CCC[C@@H](Nc2ncc(Cl)c(-c3c[nH]c4ccccc34)n2)C1 (some centres not stated) | –
12 | – | inactive | O=C(COc1cccc2c1C(=O)N(C1CCC(=O)NC1=O)C2=O)NCCCCCN1CCC[C@@H](Nc2ncc(Cl)c(-c3c[nH]c4ccccc34)n2)C1 (some centres not stated) | –
13 | 80 | – | O=C(COc1cccc2c1C(=O)N(C1CCC(=O)NC1=O)C2=O)NCCCCCCN1CCC[C@@H](Nc2ncc(Cl)c(-c3c[nH]c4ccccc34)n2)C1 (some centres not stated) | –
14 | 80 | – | O=C(COc1cccc2c1C(=O)N(C1CCC(=O)NC1=O)C2=O)NCCCCCCCN1CCC(C(=O)N2CCC[C@@H](Nc3ncc(Cl)c(-c4c[nH]c5ccccc45)n3)C2)CC1 (some centres not stated) | –
15 | – | inactive | O=C(COc1cccc2c1C(=O)N(C1CCC(=O)NC1=O)C2=O)NCCCCCCCN1CCN(c2cccc(C(=O)N3CCC[C@@H](Nc4ncc(Cl)c(-c5c[nH]c6ccccc56)n4)C3)c2)CC1 (some centres not stated) | –
16 | 80 | – | O=C(COc1cccc2c1C(=O)N(C1CCC(=O)NC1=O)C2=O)NCCCCCCN1CCC(C(=O)N2CCC[C@@H](Nc3ncc(Cl)c(-c4c[nH]c5ccccc45)n3)C2)CC1 (some centres not stated) | –
17 | – | inactive | O=C(COc1cccc2c1C(=O)N(C1CCC(=O)NC1=O)C2=O)NCCCCCC(=O)N1CCC[C@@H](Nc2ncc(Cl)c(-c3c[nH]c4ccccc34)n2)C1 (some centres not stated) | –
